{
  "source": "ChEMBL document CHEMBL6083204",
  "about": "“Synthesis of a celastrol derivative as a cancer stem cell inhibitor through regulation of the STAT3 pathway for treatment of ovarian cancer” (RSC Med Chem, 2024)",
  "key": {"Mitochondrial membrane [1]": {"test_system": "Mitochondrial membrane", "test": "Induction of mitochondrial membrane potential loss in human SK-OV-3 cells at 0.4 uM incubated for 24 hrs by JC-1 staining based flow cytometry (reference value: 73.6 %)"}, "A2780 [2]": {"test_system": "A2780", "test": "Induction of cell cycle arrest in human A2780 cells assessed as reduction of Cyclin D1 expression at 0.2 uM incubated for 24 hrs by flow cytometry (reference value: 92.5 %)", "assay_type": "functional", "set-up": "scale not given: the % may be the effect or the level left"}, "SK-OV-3 [3]": {"test_system": "SK-OV-3", "test": "Induction of apoptosis in human SK-OV-3 cells assessed as necrotic cells at 0.2 uM incubated for 24 hrs by Annexin V-FITC/7-AAD staining based flow cytometry (reference value: 0.6 %)", "assay_type": "functional"}, "SK-OV-3 [4]": {"test_system": "SK-OV-3", "test": "Induction of apoptosis in human SK-OV-3 cells assessed as increase in caspase-3 activity at 0.8 uM incubated for 24 hrs by flow cytometry (reference value: 4.6 %)", "assay_type": "functional"}, "SK-OV-3 [5]": {"test_system": "SK-OV-3", "test": "Induction of cell cycle arrest in human SK-OV-3 cells assessed as accumulation of cells at S phase at 0.8 uM incubated for 24 hrs by BrdU staining based flow cytometry (reference value: 33.6 %)", "assay_type": "functional"}, "[6]": {"biological_target": "Signal transducer and activator of transcription 3 (Homo sapiens) (UniProt P40763)", "sequence (P40763 whole entry)": "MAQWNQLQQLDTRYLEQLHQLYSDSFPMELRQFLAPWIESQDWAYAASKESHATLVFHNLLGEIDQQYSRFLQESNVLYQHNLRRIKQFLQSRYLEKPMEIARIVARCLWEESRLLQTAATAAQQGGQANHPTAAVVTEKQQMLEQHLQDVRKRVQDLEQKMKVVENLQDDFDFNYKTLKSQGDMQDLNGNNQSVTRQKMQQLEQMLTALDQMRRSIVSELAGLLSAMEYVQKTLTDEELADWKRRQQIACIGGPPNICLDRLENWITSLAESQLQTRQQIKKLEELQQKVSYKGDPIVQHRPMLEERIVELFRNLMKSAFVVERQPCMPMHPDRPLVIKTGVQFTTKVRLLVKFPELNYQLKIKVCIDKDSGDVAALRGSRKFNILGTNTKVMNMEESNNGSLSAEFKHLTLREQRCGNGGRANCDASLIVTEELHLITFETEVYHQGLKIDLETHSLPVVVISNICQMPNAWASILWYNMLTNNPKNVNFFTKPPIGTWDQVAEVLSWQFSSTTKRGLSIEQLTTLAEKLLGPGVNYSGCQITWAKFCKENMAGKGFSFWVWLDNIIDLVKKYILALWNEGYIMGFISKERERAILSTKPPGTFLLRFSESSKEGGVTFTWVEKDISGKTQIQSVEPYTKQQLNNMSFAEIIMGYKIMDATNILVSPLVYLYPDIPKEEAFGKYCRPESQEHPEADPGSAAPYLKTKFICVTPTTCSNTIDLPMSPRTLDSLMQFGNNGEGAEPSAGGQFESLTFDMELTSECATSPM", "test": "Inhibition of STAT3 in human SK-OV-3 cells assessed as downregulation of Mcl-1 expression at 0.1 to 0.4 uM incubated for 24 hrs by Western blotting analysis", "assay_type": "cell-based", "conditions": "dose 0.1-0.4 µM"}, "A2780 [7]": {"test_system": "A2780", "test": "Induction of apoptosis in human A2780 cells assessed as increase in caspase-8 activity at 0.4 uM incubated for 24 hrs by flow cytometry (reference value: 1.2 %)", "assay_type": "functional"}, "A2780 [8]": {"test_system": "A2780", "test": "Induction of ROS production in human A2780 cells assessed as increase in fluorescence intensity incubated for 24 hrs by DCFH-DA staining based flow cytometry", "assay_type": "functional, cell-based"}, "SK-OV-3 [9]": {"test_system": "SK-OV-3", "test": "Induction of cell cycle arrest in human SK-OV-3 cells assessed as accumulation of cells at G2/M phase at 0.4 uM incubated for 24 hrs by BrdU staining based flow cytometry (reference value: 6.3 %)", "assay_type": "functional"}, "SK-OV-3 [10]": {"test_system": "SK-OV-3", "test": "Induction of apoptosis in human SK-OV-3 cells assessed as early apoptotic cells at 0.4 uM incubated for 24 hrs by Annexin V-FITC/7-AAD staining based flow cytometry (reference value: 1.6 %)", "assay_type": "functional"}, "[11]": {"biological_target": "Signal transducer and activator of transcription 3 (Homo sapiens) (UniProt P40763)", "test": "Inhibition of STAT3 in human SK-OV-3 cells assessed as downregulation of STAT3 phosphorylation at Ser727 residue incubated for 24 hrs by Western blotting analysis", "assay_type": "cell-based"}, "A2780 [12]": {"test_system": "A2780", "test": "Inhibition of colony formation in human A2780 cells assessed as reduction in colony number incubated for 10 days by crystal violet staining based analysis", "assay_type": "functional, cell-based", "conditions": "time 10.0 day"}, "SK-OV-3 [13]": {"test_system": "SK-OV-3", "test": "Inhibition of cell migration in human SK-OV-3 cells assessed as reduction in number of migrated cells at 0.1 to 0.4 uM incubated for 24 hrs by crystal violet staining based transwell assay", "assay_type": "functional", "conditions": "dose 0.1-0.4 µM"}, "A2780 [14]": {"test_system": "A2780", "test": "Induction of apoptosis in human A2780 cells assessed as early apoptotic cells at 0.8 uM incubated for 24 hrs by Annexin V-FITC/7-AAD staining based flow cytometry (reference value: 1.9 %)", "assay_type": "functional"}, "Mitochondrial membrane [15]": {"test_system": "Mitochondrial membrane", "test": "Induction of mitochondrial membrane potential loss in human SK-OV-3 cells at 0.2 uM incubated for 24 hrs by JC-1 staining based flow cytometry (reference value: 73.6 %)"}, "SK-OV-3 [16]": {"test_system": "SK-OV-3", "test": "Induction of apoptosis in human SK-OV-3 cells assessed as necrotic cells at 0.8 uM incubated for 24 hrs by Annexin V-FITC/7-AAD staining based flow cytometry (reference value: 0.6 %)", "assay_type": "functional"}, "SK-OV-3 [17]": {"test_system": "SK-OV-3", "test": "Inhibition of human SK-OV-3 cells spheroid formation assessed as reduction in spheroid number at 0.1 to 0.4 uM incubated for 10 days by inverted microscopic analysis", "assay_type": "functional, cell-based", "conditions": "dose 0.1-0.4 µM, time 10.0 day"}, "SK-OV-3 [18]": {"test_system": "SK-OV-3", "test": "Antiproliferative activity against human SK-OV-3 cells assessed as decrease in CD44 positive CD24 negative cells expression at 0.4 uM incubated for 24 hrs by FITC staining based flow cytometry (reference value: 85.6 %)", "assay_type": "functional", "set-up": "scale not given: the % may be the effect or the level left"}, "Mitochondrial membrane [19]": {"test_system": "Mitochondrial membrane", "test": "Induction of mitochondrial membrane potential loss in human A2780 cells at 0.2 uM incubated for 24 hrs by JC-1 staining based flow cytometry (reference value: 81 %)"}, "[20]": {"biological_target": "Signal transducer and activator of transcription 3 (Homo sapiens) (UniProt P40763)", "test": "Inhibition of STAT3 in human SK-OV-3 cells assessed as downregulation of STAT3 phosphorylation at Tyr705 residue in nuclei at 0.2 uM incubated for 24 hrs by Hoechst33342 staining based immunofluorescence assay", "assay_type": "cell-based"}, "[21]": {"test": "Toxicity in BALB/c mouse xenografted with human SK-OV-3 cells assessed as pathological change in liver at 2 to 5 mg/kg,ip administrated for 21 consecutive days by hematoxylin and eosin staining based assay", "assay_type": "organism-based", "conditions": "in vivo, dose 2-5 mg/kg"}, "[22]": {"test": "Toxicity in BALB/c mouse xenografted with human SK-OV-3 cells assessed as change in body weight at 2 to 5 mg/kg,ip administrated for 21 consecutive days", "assay_type": "organism-based", "conditions": "in vivo, dose 2-5 mg/kg"}, "SK-OV-3 [23]": {"test_system": "SK-OV-3", "test": "Induction of apoptosis in human SK-OV-3 cells assessed as early apoptotic cells at 0.2 uM incubated for 24 hrs by Annexin V-FITC/7-AAD staining based flow cytometry (reference value: 1.6 %)", "assay_type": "functional"}, "[24]": {"biological_target": "Signal transducer and activator of transcription 3 (Homo sapiens) (UniProt P40763)", "test": "Inhibition of STAT3 in human A2780 cells assessed as downregulation of STAT3 phosphorylation at Ser727 residue in nuclei at 0.2 uM incubated for 24 hrs by Hoechst33342 staining based immunofluorescence assay", "assay_type": "cell-based"}, "SK-OV-3 [25]": {"test_system": "SK-OV-3", "test": "Induction of cell cycle arrest in human SK-OV-3 cells assessed as accumulation of cells at S phase at 0.4 uM incubated for 24 hrs by BrdU staining based flow cytometry (reference value: 33.6 %)", "assay_type": "functional"}, "A2780 [26]": {"test_system": "A2780", "test": "Induction of apoptosis in human A2780 cells assessed as increase in caspase-3 activity at 0.4 uM incubated for 24 hrs by flow cytometry (reference value: 1.5 %)", "assay_type": "functional"}, "A2780 [27]": {"test_system": "A2780", "test": "Induction of cell cycle arrest in human A2780 cells assessed as reduction of CDK2 expression at 0.2 uM incubated for 24 hrs by flow cytometry (reference value: 92.5 %)", "assay_type": "functional", "set-up": "scale not given: the % may be the effect or the level left"}, "SK-OV-3 [28]": {"test_system": "SK-OV-3", "test": "Induction of apoptosis in human SK-OV-3 cells assessed as increase in caspase-8 activity at 0.4 uM incubated for 24 hrs by flow cytometry (reference value: 2.5 %)", "assay_type": "functional"}, "A2780 [29]": {"test_system": "A2780", "test": "Induction of apoptosis in human A2780 cells assessed as early apoptotic cells at 0.2 uM incubated for 24 hrs by Annexin V-FITC/7-AAD staining based flow cytometry (reference value: 1.9 %)", "assay_type": "functional"}, "SK-OV-3 [30]": {"test_system": "SK-OV-3", "test": "Inhibition of colony formation in human SK-OV-3 cells assessed as reduction in colony number incubated for 10 days by crystal violet staining based analysis", "assay_type": "functional, cell-based", "conditions": "time 10.0 day"}, "SK-OV-3 [31]": {"test_system": "SK-OV-3", "test": "Induction of apoptosis in human SK-OV-3 cells assessed as necrotic cells at 0.4 uM incubated for 24 hrs by Annexin V-FITC/7-AAD staining based flow cytometry (reference value: 0.6 %)", "assay_type": "functional"}, "A2780 [32]": {"test_system": "A2780", "test": "Induction of cell cycle arrest in human A2780 cells assessed as accumulation of cells at S phase at 0.4 uM incubated for 24 hrs by BrdU staining based flow cytometry (reference value: 51.6 %)", "assay_type": "functional"}, "[33]": {"test": "Toxicity in BALB/c mouse xenografted with human SK-OV-3 cells assessed as behavioral change at 2 to 5 mg/kg,ip administrated for 21 consecutive days", "assay_type": "organism-based", "conditions": "in vivo, dose 2-5 mg/kg"}},
  "note": "Active and inactive are the calls of the source. No cut-off for these calls is given here.",
  "data": [
    {"smiles": "CC1=C(O)C(=O)C=C2C1=CC=C1[C@@]2(C)CC[C@@]2(C)[C@@H]3C[C@](C)(C(=O)N4CCNCC4)CC[C@]3(C)CC[C@]12C", "values": [
      {"measurement": "Activity", "setting": "Mitochondrial membrane [1]", "value": 17.2, "unit": "%"},
      {"measurement": "Activity", "setting": "A2780 [2]", "value": 85.2, "unit": "%"},
      {"measurement": "Activity", "setting": "SK-OV-3 [3]", "value": 0.7, "unit": "%"},
      {"measurement": "Activity", "setting": "SK-OV-3 [4]", "value": 33.8, "unit": "%"},
      {"measurement": "Activity", "setting": "SK-OV-3 [5]", "value": 37.2, "unit": "%"},
      {"measurement": "inhibition", "setting": "[6]", "value": "Active"},
      {"measurement": "Activity", "setting": "A2780 [7]", "value": 9.8, "unit": "%"},
      {"measurement": "Activity", "setting": "A2780 [8]", "value": "Dose-dependent-effect"},
      {"measurement": "Activity", "setting": "SK-OV-3 [9]", "value": 7.4, "unit": "%"},
      {"measurement": "Activity", "setting": "SK-OV-3 [10]", "value": 23.3, "unit": "%"},
      {"measurement": "inhibition", "setting": "[11]", "value": "Dose-dependent-effect"},
      {"measurement": "inhibition", "setting": "A2780 [12]", "value": "Dose-dependent-effect"},
      {"measurement": "inhibition", "setting": "SK-OV-3 [13]", "value": "Active"},
      {"measurement": "Activity", "setting": "A2780 [14]", "value": 1.7, "unit": "%"},
      {"measurement": "Activity", "setting": "Mitochondrial membrane [15]", "value": 49.6, "unit": "%"},
      {"measurement": "Activity", "setting": "SK-OV-3 [16]", "value": 1.4, "unit": "%"},
      {"measurement": "inhibition", "setting": "SK-OV-3 [17]", "value": "Active"},
      {"measurement": "Activity", "setting": "SK-OV-3 [18]", "value": 51.67, "unit": "%"},
      {"measurement": "Activity", "setting": "Mitochondrial membrane [19]", "value": 53.2, "unit": "%"},
      {"measurement": "inhibition", "setting": "[20]", "value": "Active"},
      {"measurement": "Activity", "setting": "[21]", "value": "Non-toxic"},
      {"measurement": "Activity", "setting": "[22]", "value": "Non-toxic"},
      {"measurement": "Activity", "setting": "SK-OV-3 [23]", "value": 17.3, "unit": "%"},
      {"measurement": "inhibition", "setting": "[24]", "value": "Active"},
      {"measurement": "Activity", "setting": "SK-OV-3 [25]", "value": 42.9, "unit": "%"},
      {"measurement": "Activity", "setting": "A2780 [26]", "value": 24.1, "unit": "%"},
      {"measurement": "Activity", "setting": "A2780 [27]", "value": 89.6, "unit": "%"},
      {"measurement": "Activity", "setting": "SK-OV-3 [28]", "value": 36.7, "unit": "%"},
      {"measurement": "Activity", "setting": "A2780 [29]", "value": 4.4, "unit": "%"},
      {"measurement": "inhibition", "setting": "SK-OV-3 [30]", "value": "Dose-dependent-effect"},
      {"measurement": "Activity", "setting": "SK-OV-3 [31]", "value": 0.9, "unit": "%"},
      {"measurement": "Activity", "setting": "A2780 [32]", "value": 25.2, "unit": "%"},
      {"measurement": "Activity", "setting": "[33]", "value": "Non-toxic"}
    ]}
  ]
}
